# EPA's ToxValDB 9.5 (doi:10.2903/j.efsa.2010.1822)
# Key:
# [1] = test system: Oncorhynchus mykiss; settings: chronic/long-term; duration: 28 days; other
# [2] = test system: Tagia sp.
# [3] = test system: Lepomis macrochirus; settings: acute; duration: 96 hours; mortality
# [4] = test system: Apis mellifera; settings: acute; duration: 48 hours; dermal; mortality
# [5] = test system: Canidae; settings: chronic; duration: 52 weeks; oral; Dog Other; histopathology: nonneoplastic
# [6] = test system: Rattus norvegicus
# [7] = test system: Daphnia magna; settings: chronic/long-term; duration: 21 days; reproduction
# [8] = test system: Coturnix japonica; settings: reproduction developmental
# [9] = test system: Bibionidae; settings: chronic/long-term; duration: 28 days
# [10] = test system: Anas platyrhynchos; settings: short-term; oral; feed; mortality
# [11] = test system: Hypoaspis aculeifer; settings: chronic/long-term
# [12] = test system: Colinus virginianus; settings: acute; oral; mortality
# [13] = test system: Aphidius rhopalosiphi; assay: LR50; higher = less toxic; settings: not reported; mortality
structure (smiles),measurement,setting,value
COC(=O)[N-]S(=O)(=O)c1ccc(N)cc1.[Na+] [Asulam-sodium],NOEC,[1],119 mg/L
same,LC50,"[2]; acute, duration: 14 days, mortality",1000 mg/kg
same,NOEC,"[2]; chronic/long-term, duration: 56 days",181 mg/kg
same,LC50,[3],> 91.3 µg/mL
same,LD50,[4],> 100 µg/piece
same,NOAEL,[5],100 mg/kg-day
same,LD50,"[6]; acute, oral, mortality",> 4560 mg/kg
same,NOAEL,"[6]; chronic, duration: 2 years, hematological",36 mg/kg-day
same,NOEL,"[6]; reproduction developmental, reproduction",46 mg/kg-day
same,NOEC,[7],6.4 mg/L
same,NOAEC,[8],65 mg/kg-day
same,NOEL,[8],19 mg/kg-day
same,NOEC,[9],91.3 mg/L
same,LD50,[10],> 22700 mg/kg-day
same,NOEC,[11],4370 mg/kg
same,LD50,[12],> 1830 mg/kg
same,LR50,[13],3090 mL/ha
